Assay results published in the supplement of paper PMC10702517.
± gives the standard deviation.

What was measured:
[1] = chemical recovery from spiked human plasma; higher = better extraction; details: pooled human plasma
[2] = chemical recovery into PDMS from spiked human plasma; higher = better extraction; details: pooled human plasma, extraction method: PES with PDMS
[3] = chemical recovery by SPE of plasma after PDMS sampling; higher = better extraction; details: pooled human plasma, extraction method: HLB SPE of plasma after PES
[4] = extraction method: PES+SPE (3 d PDMS equilibration then HLB SPE)
[5] = extraction method: SPE only (HLB 96-well)
[6] = extraction method: SPE only (HLB 96-well), PES comparison experiment
[7] = extraction method: solvent precipitation (ACN + hexane)
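Throughout, for chemical recovery by SPE of plasma after PDMS sampling: over 400 spiked chemicals quantified by LC-HRMS or GC-HRMS via internal standard calibration, recovery relative to spike mix added to unspiked plasma extract to correct matrix effects.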

SMILES	chemical recovery [1, 6] [%]	chemical recovery into PDMS ([2]; equilibration time (d): 1) [%]	chemical recovery into PDMS ([2]; equilibration time (d): 3) [%]	chemical recovery into PDMS ([2]; equilibration time (d): 6) [%]	chemical recovery by SPE of plasma ([3]; equilibration time (d): 6) [%]	chemical recovery [1, 4] [%]	chemical recovery [1, 5] [%]	chemical recovery by SPE of plasma ([3]; equilibration time (d): 1) [%]	chemical recovery by SPE of plasma ([3]; equilibration time (d): 3) [%]	chemical recovery [1, 7] [%]
O=C1CC2(CCCCC2)CN1 [Gabapentin-Lactam]	48.4 ± 5.6	22.3 ± 0.47	28.5 ± 1.6	31.2 ± 1.6	9.93 ± 1.6	44.2 ± 6.2	49.4 ± 1.6	19.4 ± 2.5	15.6 ± 1.9	71.2 ± 2.9
C#C[C@]1(O)C=C[C@H]2[C@@H]3CCC4=CC(=O)CC[C@@H]4[C@H]3CC[C@@]21CC [Gestoden]	47 ± 7.4	34.1 ± 1.7	43 ± 2.3	40.9 ± 4.1	11.7 ± 1.3	–	–	22.4 ± 3	17.6 ± 1	–
COCN(COC)c1nc(N(COC)COC)nc(N(COC)COC)n1 [Hexa(methoxymethyl)melamine]	7.63 ± 2.7	39.4 ± 2.9	45.8 ± 2.6	41.9 ± 5.7	0.745 ± 1	38.3 ± 8.8	–	7.64 ± 6.8	3.37 ± 3	72.5 ± 2.8
CN(C)c1nc(=O)n(C2CCCCC2)c(=O)n1C [Hexazinone]	48.5 ± 4.3	36.1 ± 1.9	42.2 ± 4.5	44.5 ± 2.9	22.5 ± 4.4	51.5 ± 4.8	45.4 ± 3.4	38.9 ± 6.6	–	–
O=P1(NCCCl)OCCCN1CCCl (stereo unspecified) [Ifosfamide]	55.9 ± 6.7	3.64 ± 0.32	6.16 ± 1.5	6.9 ± 1.5	47.3 ± 4.7	46.6 ± 3.5	39.4 ± 3.3	54.9 ± 6.7	56.1 ± 4.8	71.7 ± 1.5
C=CCOC(Cn1ccnc1)c1ccc(Cl)cc1Cl (stereo unspecified) [Imazalil]	47.6 ± 5.3	20 ± 0.37	20.6 ± 1	20.7 ± 1.6	0.104 ± 0.0059	21.3 ± 3.4	42.1 ± 3	0.376 ± 0.081	0.334 ± 0.2	75 ± 4.8
CC(C)C1(C)N=C(c2ncccc2C(=O)O)NC1=O (stereo unspecified) [Imazapyr]	52.5 ± 4	–	–	0.0849 ± 0.048	49.2 ± 2.4	44.4 ± 2.9	44.7 ± 9.6	49.5 ± 5.4	53.1 ± 3.2	67.7 ± 5.8
O=C1NCCN1Cc1ccc(Cl)nc1 [Imidacloprid-urea]	51.1 ± 4.4	6.18 ± 0.38	10.2 ± 1.7	11.7 ± 2	39.3 ± 1.7	51.2 ± 4.7	43.2 ± 9.1	50.1 ± 6.5	50.2 ± 4.6	77.1 ± 3.8
O=[N+]([O-])/N=C1\NCCN1Cc1ccc(Cl)nc1 [Imidacloprid]	53.3 ± 7.2	3.82 ± 0.41	6.8 ± 1.8	7.69 ± 1.4	43.2 ± 2.7	47.6 ± 4	39.9 ± 8	49 ± 6.3	50.2 ± 4.6	77.5 ± 3.8
CC(C)c1ccc(NC(=O)N(C)C)cc1 [Isoproturon]	53.4 ± 6.7	37.1 ± 2.3	40.1 ± 2.3	40.4 ± 0.94	3.08 ± 0.39	46.2 ± 4.8	43.1 ± 2.7	5.76 ± 0.47	5.5 ± 0.88	74.8 ± 3.5
CCCCCCCCCCCC(=O)N(CCO)CCO [Lauryl diethanolamide]	51.6 ± 7.8	16.8 ± 3	24.3 ± 2.5	26.3 ± 2.7	13.2 ± 2.9	–	–	24.9 ± 2.9	18.5 ± 3.1	–
O=C1Nc2ccc(Cl)cc2C(c2ccccc2Cl)=NC1O (stereo unspecified) [Lorazepam]	45.6 ± 7	4.25 ± 0.37	8.29 ± 1.1	9.18 ± 1.4	31.1 ± 1.8	36.5 ± 2.4	30.9 ± 2.8	38.9 ± 5.5	38.9 ± 3	72.1 ± 3.6
Cc1cc(Cl)ccc1OCC(=O)O [MCPA]	59.9 ± 5.7	0.00252 ± 0.0044	0.00652 ± 0.0057	–	58.8 ± 3.1	46.2 ± 2.6	43.1 ± 3	56.1 ± 11	64.2 ± 5.6	71.8 ± 7.4
COCC(=O)N(c1c(C)cccc1C)C(C)C(=O)OC (stereo unspecified) [Metalaxyl]	50.3 ± 7.6	33.1 ± 0.4	36.7 ± 3.2	36.9 ± 0.38	0.955 ± 1.6	–	–	5.41 ± 0.46	5.16 ± 0.64	70.2 ± 2.1
Cc1cccc(C)c1N(Cn1cccn1)C(=O)CCl [Metazachlor]	53.5 ± 7.4	40.1 ± 1.9	42.9 ± 2.5	42.7 ± 2.1	0.82 ± 0.13	42.8 ± 5	38.6 ± 2.5	1.5 ± 0.11	1.57 ± 0.29	66.2 ± 2.7

Now from value to compound, other results behind:

chemical recovery [1, 6] [%]	chemical recovery into PDMS ([2]; equilibration time (d): 1) [%]	chemical recovery into PDMS ([2]; equilibration time (d): 3) [%]	chemical recovery into PDMS ([2]; equilibration time (d): 6) [%]	chemical recovery by SPE of plasma ([3]; equilibration time (d): 6) [%]	SMILES	chemical recovery [1, 4] [%]	chemical recovery [1, 5] [%]	chemical recovery by SPE of plasma ([3]; equilibration time (d): 1) [%]	chemical recovery by SPE of plasma ([3]; equilibration time (d): 3) [%]	chemical recovery [1, 7] [%]
41.8 ± 7.1	2.41 ± 0.97	1.09 ± 0.96	2.83 ± 1.3	0.901 ± 0.06	COCCCC/C(=N\OCCN)c1ccc(C(F)(F)F)cc1 [Fluvoxamine]	4.62 ± 1.6	51 ± 0.52	1.45 ± 0.092	1.56 ± 0.35	–
43.2 ± 8.4	27.3 ± 1.6	31.3 ± 3.8	35.5 ± 13	1.58 ± 0.1	CCC(C)OC(=O)N1CCCCC1CCO (stereo unspecified) [Icaridin]	–	45 ± 5.5	2.46 ± 0.24	2.67 ± 0.36	–
28.4 ± 4.4	2.55 ± 1.2	2.02 ± 2.1	1.36 ± 0.63	2.5 ± 1.3	C1=Cc2ccccc2Nc2ccccc21 [Iminostilbene]	10.8 ± 4.1	44.1 ± 7	3.69 ± 2.4	4 ± 1.1	73.2 ± 4.5
44.2 ± 6.4	19.6 ± 7	19.3 ± 6.5	20.9 ± 3.9	0.421 ± 0.023	CSc1nc(NC2CC2)nc(NC(C)(C)C)n1 [Irgarol]	–	55.7 ± 4	0.863 ± 0.085	0.842 ± 0.15	81.5 ± 4.4
4.27 ± 3.6	0.00705 ± 0.025	0.0508 ± 0.069	–	1.22 ± 0.75	CC1(C)CC(N)CC(C)(CN)C1 (stereo unspecified) [Isophorone diamine]	–	–	–	–	–
42.1 ± 5.8	13.7 ± 1.6	21 ± 1.4	23.6 ± 1.8	8.71 ± 0.66	COC(=O)Nc1nc2cc(C(=O)c3ccccc3)ccc2[nH]1 [Mebendazole]	71.2 ± 11	45 ± 2.8	18.4 ± 2.3	14 ± 1.4	77.3 ± 3.4
47.7 ± 7	40.5 ± 2.4	46.2 ± 3.4	44.5 ± 6.2	1.02 ± 1.8	CC(=O)[C@@]1(O)CC[C@H]2[C@@H]3C[C@H](C)C4=CC(=O)CC[C@]4(C)[C@H]3CC[C@@]21C [Medroxyprogesterone]	–	–	–	–	–
45.1 ± 6.8	3.61 ± 1.9	4.46 ± 2.7	3.08 ± 2.4	5.53 ± 0.96	CC12CC3CC(C)(C1)CC(N)(C3)C2 [Memantine]	14.8 ± 4.7	46.6 ± 1.4	6.36 ± 0.42	7.03 ± 1.2	47.1 ± 4.5
51.8 ± 4.5	5.75 ± 0.43	9.79 ± 2.3	11.1 ± 1.1	49.7 ± 6.9	Cc1cccc(C)c1N(Cn1cccn1)C(=O)C[S+](C)[O-] (stereo unspecified) [Metazachlor BH 479-11]	46 ± 4.5	50.3 ± 0.97	59.7 ± 9	57.3 ± 4.7	68.7 ± 3.1
50.4 ± 3.9	–	–	0.0244 ± 0.042	57.2 ± 4.4	Cc1cccc(C)c1N(Cn1cccn1)C(=O)C(=O)O [Metazachlor OA]	–	–	56.9 ± 8.4	63.4 ± 2.8	–
